Data: ChEMBL document CHEMBL3627608, “Crystal structures of human RIP2 kinase catalytic domain complexed with ATP-competitive inhibitors: Foundations for understanding inhibitor selectivity” (Bioorg Med Chem, 2015)

What was measured:
[1] = biological target: T1, Serine/threonine-protein kinase LATS1 (Homo sapiens) (UniProt O95835); test: Inhibition of LATS (unknown origin) at 10 uM after 120 mins P33 radiolabeled kinase activity assay
T1 sequence (whole entry): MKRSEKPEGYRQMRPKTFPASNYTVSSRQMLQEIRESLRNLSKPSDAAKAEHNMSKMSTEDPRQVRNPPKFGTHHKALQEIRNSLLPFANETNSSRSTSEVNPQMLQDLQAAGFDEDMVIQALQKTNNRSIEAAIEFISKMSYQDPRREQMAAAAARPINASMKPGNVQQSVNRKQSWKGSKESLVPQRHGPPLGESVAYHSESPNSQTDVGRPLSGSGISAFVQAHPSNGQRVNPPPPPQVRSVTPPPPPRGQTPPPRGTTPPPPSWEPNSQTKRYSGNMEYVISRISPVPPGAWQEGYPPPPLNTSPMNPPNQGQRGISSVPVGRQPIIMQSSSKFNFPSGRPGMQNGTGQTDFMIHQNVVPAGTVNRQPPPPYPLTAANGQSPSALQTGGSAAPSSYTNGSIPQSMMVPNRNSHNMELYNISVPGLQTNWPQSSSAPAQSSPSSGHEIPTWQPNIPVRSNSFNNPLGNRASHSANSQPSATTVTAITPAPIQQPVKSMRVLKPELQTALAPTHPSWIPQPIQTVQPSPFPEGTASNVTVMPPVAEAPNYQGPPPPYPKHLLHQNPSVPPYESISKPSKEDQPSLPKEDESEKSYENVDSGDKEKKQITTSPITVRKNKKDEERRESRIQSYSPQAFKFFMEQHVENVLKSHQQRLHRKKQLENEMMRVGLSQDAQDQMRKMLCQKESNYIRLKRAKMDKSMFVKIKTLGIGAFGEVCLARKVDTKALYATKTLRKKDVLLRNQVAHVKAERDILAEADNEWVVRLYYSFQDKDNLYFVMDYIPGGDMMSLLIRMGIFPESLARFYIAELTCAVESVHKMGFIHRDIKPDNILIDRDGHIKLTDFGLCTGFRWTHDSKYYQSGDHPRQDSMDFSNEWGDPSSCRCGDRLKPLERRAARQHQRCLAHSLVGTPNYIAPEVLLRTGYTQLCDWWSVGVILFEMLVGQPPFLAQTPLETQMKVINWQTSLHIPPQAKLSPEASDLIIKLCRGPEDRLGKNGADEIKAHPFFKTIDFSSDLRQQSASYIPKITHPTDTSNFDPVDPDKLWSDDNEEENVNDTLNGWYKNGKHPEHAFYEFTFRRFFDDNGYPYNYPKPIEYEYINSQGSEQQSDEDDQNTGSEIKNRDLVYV

[2] = biological target: T2, Serine/threonine-protein kinase NLK (Homo sapiens) (UniProt Q9UBE8); test: Inhibition of NLK (unknown origin) at 10 uM after 120 mins P33 radiolabeled kinase activity assay
T2 sequence (whole entry): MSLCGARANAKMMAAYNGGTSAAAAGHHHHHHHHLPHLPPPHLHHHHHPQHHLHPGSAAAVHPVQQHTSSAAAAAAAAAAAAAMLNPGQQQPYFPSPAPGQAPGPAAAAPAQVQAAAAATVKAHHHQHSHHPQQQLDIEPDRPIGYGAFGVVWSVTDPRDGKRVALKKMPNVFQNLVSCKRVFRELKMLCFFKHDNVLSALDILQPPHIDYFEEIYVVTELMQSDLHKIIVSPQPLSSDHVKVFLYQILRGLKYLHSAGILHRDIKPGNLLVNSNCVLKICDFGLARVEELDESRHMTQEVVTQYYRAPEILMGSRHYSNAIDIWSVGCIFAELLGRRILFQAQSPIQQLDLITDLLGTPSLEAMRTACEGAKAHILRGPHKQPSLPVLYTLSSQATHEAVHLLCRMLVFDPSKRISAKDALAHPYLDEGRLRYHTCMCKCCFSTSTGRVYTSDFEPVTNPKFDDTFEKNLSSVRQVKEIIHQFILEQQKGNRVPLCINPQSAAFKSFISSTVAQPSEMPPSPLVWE

[3] = biological target: Serine/threonine-protein kinase Chk2 (Homo sapiens) (UniProt O96017); test: Inhibition of CHK2 (unknown origin) at 10 uM after 120 mins P33 radiolabeled kinase activity assay
[4] = biological target: Serine/threonine-protein kinase PAK 3 (Homo sapiens) (UniProt O75914); test: Inhibition of PAK3 (unknown origin) at 10 uM after 120 mins P33 radiolabeled kinase activity assay
[5] = biological target: T3, Serine/threonine-protein kinase DCLK1 (Homo sapiens) (UniProt O15075); test: Inhibition of DCAMKL1 (unknown origin) at 10 uM after 120 mins P33 radiolabeled kinase activity assay
T3 sequence (whole entry): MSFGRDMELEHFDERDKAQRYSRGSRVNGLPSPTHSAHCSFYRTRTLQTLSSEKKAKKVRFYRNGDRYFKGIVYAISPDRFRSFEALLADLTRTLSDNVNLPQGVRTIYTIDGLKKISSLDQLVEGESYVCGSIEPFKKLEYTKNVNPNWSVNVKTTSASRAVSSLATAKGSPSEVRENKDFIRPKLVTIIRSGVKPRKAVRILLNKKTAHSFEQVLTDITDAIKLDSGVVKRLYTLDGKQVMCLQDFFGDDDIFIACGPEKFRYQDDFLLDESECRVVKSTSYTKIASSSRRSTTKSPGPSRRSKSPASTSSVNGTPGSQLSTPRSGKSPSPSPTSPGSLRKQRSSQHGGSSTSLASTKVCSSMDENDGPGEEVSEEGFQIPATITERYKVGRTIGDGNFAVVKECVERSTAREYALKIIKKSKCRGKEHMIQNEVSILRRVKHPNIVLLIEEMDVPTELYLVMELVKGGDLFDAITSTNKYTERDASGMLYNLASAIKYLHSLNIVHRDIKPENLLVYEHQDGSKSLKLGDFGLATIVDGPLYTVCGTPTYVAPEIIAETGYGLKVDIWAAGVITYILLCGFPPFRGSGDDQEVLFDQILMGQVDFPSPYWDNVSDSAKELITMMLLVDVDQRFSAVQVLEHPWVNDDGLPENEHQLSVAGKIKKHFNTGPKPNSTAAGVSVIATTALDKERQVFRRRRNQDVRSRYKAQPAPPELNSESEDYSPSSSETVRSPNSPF

[6] = biological target: G protein-coupled receptor kinase 4 (Homo sapiens) (UniProt P32298); test: Inhibition of GRK4 (unknown origin) at 10 uM after 120 mins P33 radiolabeled kinase activity assay
[7] = biological target: Focal adhesion kinase 1 (Homo sapiens) (UniProt Q05397); test: Inhibition of FAK (unknown origin) at 10 uM after 120 mins P33 radiolabeled kinase activity assay
[8] = biological target: Cyclin-dependent kinase 14 (Homo sapiens) (UniProt O94921); test: Inhibition of PFTK1 (unknown origin) at 10 uM after 120 mins P33 radiolabeled kinase activity assay
Sequence of Cyclin-dependent kinase 14 (Homo sapiens) (O94921 whole entry): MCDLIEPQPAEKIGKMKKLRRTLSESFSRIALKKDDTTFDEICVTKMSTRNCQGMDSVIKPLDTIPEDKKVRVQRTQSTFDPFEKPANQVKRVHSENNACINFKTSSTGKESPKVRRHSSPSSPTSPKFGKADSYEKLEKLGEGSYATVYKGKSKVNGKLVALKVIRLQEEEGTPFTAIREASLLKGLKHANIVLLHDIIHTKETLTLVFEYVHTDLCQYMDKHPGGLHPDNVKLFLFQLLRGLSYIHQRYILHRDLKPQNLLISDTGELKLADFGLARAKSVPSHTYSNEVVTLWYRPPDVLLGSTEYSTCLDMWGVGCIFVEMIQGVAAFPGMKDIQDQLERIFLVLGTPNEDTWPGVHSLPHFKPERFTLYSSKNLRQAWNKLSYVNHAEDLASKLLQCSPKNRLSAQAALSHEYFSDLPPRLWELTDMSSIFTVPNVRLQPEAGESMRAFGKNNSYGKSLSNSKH

Sequence of Focal adhesion kinase 1 (Homo sapiens) (Q05397 2-1052 limits assumed): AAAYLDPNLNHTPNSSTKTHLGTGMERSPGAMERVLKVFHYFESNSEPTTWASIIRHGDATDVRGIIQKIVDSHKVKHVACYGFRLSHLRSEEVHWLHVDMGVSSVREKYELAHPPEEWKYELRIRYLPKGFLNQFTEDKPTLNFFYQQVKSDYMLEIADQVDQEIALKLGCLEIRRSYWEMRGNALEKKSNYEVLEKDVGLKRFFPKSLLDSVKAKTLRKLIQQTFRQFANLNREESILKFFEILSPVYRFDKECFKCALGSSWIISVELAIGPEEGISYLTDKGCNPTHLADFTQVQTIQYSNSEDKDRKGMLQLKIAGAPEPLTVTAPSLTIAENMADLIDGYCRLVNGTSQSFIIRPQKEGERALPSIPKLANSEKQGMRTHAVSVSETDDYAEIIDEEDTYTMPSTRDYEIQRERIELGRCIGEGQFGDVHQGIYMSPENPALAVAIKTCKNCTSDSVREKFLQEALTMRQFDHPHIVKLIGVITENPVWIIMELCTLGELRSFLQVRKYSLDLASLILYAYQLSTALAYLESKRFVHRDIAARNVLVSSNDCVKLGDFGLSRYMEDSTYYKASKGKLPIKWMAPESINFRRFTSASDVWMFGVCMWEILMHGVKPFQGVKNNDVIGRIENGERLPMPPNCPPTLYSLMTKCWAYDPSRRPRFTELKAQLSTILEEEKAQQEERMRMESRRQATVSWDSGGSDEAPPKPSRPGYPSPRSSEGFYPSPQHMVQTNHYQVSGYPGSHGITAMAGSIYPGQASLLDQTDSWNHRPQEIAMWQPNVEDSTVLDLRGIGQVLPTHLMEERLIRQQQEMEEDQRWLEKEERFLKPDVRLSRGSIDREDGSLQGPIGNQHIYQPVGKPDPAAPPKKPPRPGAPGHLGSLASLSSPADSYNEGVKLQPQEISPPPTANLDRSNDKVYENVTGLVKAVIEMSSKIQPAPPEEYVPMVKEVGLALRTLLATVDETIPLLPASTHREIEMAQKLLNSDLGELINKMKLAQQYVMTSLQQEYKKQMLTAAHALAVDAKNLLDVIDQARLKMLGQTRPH
Sequence of Serine/threonine-protein kinase PAK 3 (Homo sapiens) (O75914 whole entry, looked up): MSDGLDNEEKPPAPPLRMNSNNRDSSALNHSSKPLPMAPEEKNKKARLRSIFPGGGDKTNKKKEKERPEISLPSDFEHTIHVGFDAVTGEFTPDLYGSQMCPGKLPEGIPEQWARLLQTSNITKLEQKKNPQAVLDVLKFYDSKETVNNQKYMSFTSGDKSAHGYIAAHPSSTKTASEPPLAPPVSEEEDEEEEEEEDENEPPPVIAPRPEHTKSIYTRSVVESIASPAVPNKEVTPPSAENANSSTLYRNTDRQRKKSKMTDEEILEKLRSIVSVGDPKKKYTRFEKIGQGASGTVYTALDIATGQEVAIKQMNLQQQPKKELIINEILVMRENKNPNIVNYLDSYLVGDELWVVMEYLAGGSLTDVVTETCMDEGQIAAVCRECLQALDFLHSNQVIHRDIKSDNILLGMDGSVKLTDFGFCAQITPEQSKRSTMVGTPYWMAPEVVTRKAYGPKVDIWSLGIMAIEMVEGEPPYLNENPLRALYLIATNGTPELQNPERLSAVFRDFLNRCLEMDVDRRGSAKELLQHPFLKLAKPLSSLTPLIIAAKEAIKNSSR
Sequence of Serine/threonine-protein kinase Chk2 (Homo sapiens) (O96017 whole entry): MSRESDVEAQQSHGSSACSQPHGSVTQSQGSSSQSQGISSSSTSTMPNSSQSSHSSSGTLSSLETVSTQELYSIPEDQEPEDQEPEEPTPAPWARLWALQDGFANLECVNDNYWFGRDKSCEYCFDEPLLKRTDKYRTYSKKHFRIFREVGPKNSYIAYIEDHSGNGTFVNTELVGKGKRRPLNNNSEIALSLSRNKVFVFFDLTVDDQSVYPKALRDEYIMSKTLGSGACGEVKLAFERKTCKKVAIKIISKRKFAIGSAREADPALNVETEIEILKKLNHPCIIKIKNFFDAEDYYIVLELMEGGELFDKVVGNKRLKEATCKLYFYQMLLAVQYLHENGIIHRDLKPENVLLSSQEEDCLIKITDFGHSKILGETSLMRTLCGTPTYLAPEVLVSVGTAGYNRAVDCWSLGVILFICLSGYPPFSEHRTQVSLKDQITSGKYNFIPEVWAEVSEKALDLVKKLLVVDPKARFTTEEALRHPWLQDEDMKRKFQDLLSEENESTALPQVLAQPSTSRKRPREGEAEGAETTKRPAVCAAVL
Sequence of G protein-coupled receptor kinase 4 (Homo sapiens) (P32298 whole entry, looked up): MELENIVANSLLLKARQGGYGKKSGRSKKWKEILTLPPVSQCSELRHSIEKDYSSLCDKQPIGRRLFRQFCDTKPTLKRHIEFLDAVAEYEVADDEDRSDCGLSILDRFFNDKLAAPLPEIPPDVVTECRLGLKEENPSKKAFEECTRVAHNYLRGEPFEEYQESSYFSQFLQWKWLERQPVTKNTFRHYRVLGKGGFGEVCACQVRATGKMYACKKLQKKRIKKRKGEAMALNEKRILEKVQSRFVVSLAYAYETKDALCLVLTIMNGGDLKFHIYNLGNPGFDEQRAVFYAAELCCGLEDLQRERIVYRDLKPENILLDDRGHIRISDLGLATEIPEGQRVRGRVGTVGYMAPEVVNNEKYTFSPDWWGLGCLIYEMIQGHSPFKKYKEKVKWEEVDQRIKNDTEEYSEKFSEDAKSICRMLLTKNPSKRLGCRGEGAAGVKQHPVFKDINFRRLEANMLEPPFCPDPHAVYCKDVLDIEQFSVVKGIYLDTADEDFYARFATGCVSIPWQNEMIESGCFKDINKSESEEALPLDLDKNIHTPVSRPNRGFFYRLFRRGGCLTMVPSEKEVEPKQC

Row | SMILES | inhibition [1] [%] | inhibition [2] [%] | inhibition [3] [%] | inhibition [4] [%] | inhibition [5] [%] | inhibition [6] [%] | inhibition [7] [%] | inhibition [8] [%]
1 | COCCNC(=O)c1ccc2c(c1)nc(-c1cnc(-c3ccc(Cl)cc3)[nH]1)n2CCOC | 3.53 | 55.2 | -5.19 | 18.5 | 4.11 | -0.94 | 0.5 | -3.92
2 | CS(=O)(=O)c1cccc(Nc2nccc(-c3sc(N4CCOCC4)nc3-c3cccc(NS(=O)(=O)c4c(F)cccc4F)c3)n2)c1 | 11 | 88.6 | 51.7 | 53.5 | 8.06 | -2.43 | 15 | 50.9
3 | CC(C)(C)c1cc(NC(=O)Nc2ccc(Oc3ccncc3)cc2)no1 | 9.91 | 51.5 | 11.1 | 20.6 | 2.97 | -0.89 | 11.7 | 86.7
